The numbers were not newly measured in patent US20240002438A1, “MELANOCORTIN LIGANDS AND METHODS OF USE THEREOF” (REGENTS OF THE UNIVERSITY OF MINNESOTA, priority 2021, published 2024), which cites them from elsewhere.

A value given as a limit tells only on which side of the number the result lay.

The target in data set [1] is T1, MC4R (Homo sapiens, UniProt P32245). As to conditions: at 2 μM; cited from earlier work.
In data set [2] the target is T2, MC5R (Homo sapiens, UniProt P33032). To be noted: Bednarek, J. Med. Chem. 2007; read-out: concentration displacing radiolabeled NDP-MSH at the MC5R; cited from earlier work.
Data set [3] deals with T3, MC3R (Homo sapiens, UniProt P41968). To be noted: at 2 μM; cited from earlier work.
Data set [4] addresses T4, MC1R (Homo sapiens, UniProt Q01726). To be noted: unable to displace at up to this concentration; read-out: displacement of NDP-MSH at the MC1R; cited from earlier work.
In data set [5] the target is T2, MC5R. As to conditions: Bednarek, J. Med. Chem. 2007; read-out: concentration activating the MC5R; cited from earlier work.
The target of data set [6] is T1, MC4R. To be noted: unable to displace at up to this concentration; read-out: displacement of NDP-MSH at the MC4R; cited from earlier work.
Data set [7] addresses T4, MC1R. To be noted: at 2 μM; cited from earlier work.
Data set [8] concerns the target T3, MC3R. To be noted: unable to displace at up to this concentration; read-out: displacement of NDP-MSH at the MC3R; cited from earlier work.

T2 sequence (P33032 whole entry, species assumed): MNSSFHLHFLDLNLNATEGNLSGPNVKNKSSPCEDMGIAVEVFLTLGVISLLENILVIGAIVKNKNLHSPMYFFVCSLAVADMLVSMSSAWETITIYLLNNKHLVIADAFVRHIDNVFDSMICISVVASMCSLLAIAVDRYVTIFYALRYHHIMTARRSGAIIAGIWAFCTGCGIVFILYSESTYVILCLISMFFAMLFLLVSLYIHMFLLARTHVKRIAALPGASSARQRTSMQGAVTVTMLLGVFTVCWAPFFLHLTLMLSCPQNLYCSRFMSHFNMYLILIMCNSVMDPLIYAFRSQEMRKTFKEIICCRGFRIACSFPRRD
T1 sequence (P32245 whole entry, species assumed): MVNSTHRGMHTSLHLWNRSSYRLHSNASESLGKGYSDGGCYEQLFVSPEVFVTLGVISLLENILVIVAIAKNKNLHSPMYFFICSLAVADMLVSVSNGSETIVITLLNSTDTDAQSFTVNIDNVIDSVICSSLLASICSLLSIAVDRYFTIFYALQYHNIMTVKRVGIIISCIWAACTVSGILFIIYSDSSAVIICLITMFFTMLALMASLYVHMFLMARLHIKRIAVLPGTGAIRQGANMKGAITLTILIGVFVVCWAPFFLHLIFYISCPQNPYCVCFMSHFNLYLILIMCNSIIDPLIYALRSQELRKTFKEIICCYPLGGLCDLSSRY
T4 sequence (Q01726 whole entry, species assumed): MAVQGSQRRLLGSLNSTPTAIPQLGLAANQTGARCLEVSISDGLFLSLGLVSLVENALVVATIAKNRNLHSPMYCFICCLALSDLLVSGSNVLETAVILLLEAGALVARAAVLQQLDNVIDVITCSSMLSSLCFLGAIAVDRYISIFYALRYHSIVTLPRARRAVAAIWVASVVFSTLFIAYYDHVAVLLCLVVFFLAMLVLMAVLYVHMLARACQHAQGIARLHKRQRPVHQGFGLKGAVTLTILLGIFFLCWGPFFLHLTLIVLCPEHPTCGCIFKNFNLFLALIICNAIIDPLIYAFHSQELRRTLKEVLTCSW
T3 sequence (P41968 whole entry, species assumed): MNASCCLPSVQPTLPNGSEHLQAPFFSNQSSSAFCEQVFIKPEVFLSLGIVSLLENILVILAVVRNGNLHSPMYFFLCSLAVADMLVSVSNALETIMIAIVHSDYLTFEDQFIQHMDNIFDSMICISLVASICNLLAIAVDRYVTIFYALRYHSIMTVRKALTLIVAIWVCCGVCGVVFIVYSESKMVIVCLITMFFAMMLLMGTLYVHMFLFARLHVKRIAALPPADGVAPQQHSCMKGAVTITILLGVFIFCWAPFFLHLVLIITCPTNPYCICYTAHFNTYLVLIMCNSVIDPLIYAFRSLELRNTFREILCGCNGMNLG

For Ac-Nle-c[Asp-Oic-DBip-Pip-Trp-Lys]-NH2, at MC4R [1], the “activation of the MC4R” value is “up to 40%”. Moreover, the IC50 was 0.95 nM at MC5R [2], over 5000 nM on MC1R [4], over 5000 nM on MC4R [6] and over 5000 nM on MC3R [8]. The “activation of the MC3R” value on MC3R [3] is listed as “up to 40%”. Also, the EC50 at MC5R [5] is 0.99 nM. The “activation of the MC1R” value on MC1R [7] is on record as “up to 40%”.
